This is an account of results in patent publication US20220304947A1, “COMPOSITIONS AND METHODS FOR INHIBITING PROTEOLYTIC ACTIVATION OF VIRUSES” (priority 2021, published 2022).

pIC50: −log10 of the molar value. Read-outs that look alike come from different tables or passages of the source. Residues, ends and D or L forms follow the SMILES beside them. *: point of attachment. Decanoyl = CCCCCCCCCC(=O)*; CH2Cl = ClC*

In assay [1] the target is Recombinant human Furin protein (Homo sapiens, UniProt P09958). Description: Inhibition of proteolytic enzyme (Furin) activity, fluorogenic substrate pGlu-Arg-Thr-Lys-Arg-AMC. The assay is classed as biochemical. To be noted: for inhibition at 6.25 µg/mL: at 6.25 μg/ml; for inhibition at 100 µg/mL: at 100 μg/ml; for IC50: read-out: IC50, inhibition of Furin (converted).
Sequence of Recombinant human Furin protein (P09958 108-794): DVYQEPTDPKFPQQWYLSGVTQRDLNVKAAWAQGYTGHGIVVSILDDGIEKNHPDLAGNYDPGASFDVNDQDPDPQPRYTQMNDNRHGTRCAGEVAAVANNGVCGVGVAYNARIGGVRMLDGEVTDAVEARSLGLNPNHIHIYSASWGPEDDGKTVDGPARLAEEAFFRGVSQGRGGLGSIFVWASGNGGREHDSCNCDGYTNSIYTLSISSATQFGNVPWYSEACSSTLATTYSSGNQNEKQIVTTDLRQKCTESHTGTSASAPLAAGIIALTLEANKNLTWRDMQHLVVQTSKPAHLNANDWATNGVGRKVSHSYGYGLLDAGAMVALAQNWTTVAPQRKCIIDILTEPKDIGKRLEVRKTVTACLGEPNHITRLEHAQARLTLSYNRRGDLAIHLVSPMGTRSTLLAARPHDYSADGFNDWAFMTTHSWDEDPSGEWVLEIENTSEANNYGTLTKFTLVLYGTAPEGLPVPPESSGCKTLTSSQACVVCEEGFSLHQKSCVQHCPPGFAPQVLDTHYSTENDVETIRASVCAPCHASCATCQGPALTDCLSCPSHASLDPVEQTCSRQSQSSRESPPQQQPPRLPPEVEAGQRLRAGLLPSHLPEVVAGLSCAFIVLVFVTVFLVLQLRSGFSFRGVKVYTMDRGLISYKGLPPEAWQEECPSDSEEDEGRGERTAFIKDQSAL
Assay [2] deals with SARS-CoV-2. Description: Anti-viral assay against SARS-CoV-2 in Vero E6 cells (qRT-PCR viral load). Type of assay: cell-based. To be noted: Ribavirin 2 μM, compared to infected cells only. A general note: Quantitative PCR measures a nucleic acid by following its amplification.
Setting [3] is: read-out: Percentage inhibition of Furin.

Regarding `O=C(/C=C/c1ccc(O)cc1)CC(=O)/C=C/c1ccc(O)cc1` [BDMC, Bisdemethoxycurcumin], in assay [1] (setting [3]), the inhibition at 6.25 µg/mL is 34% and the inhibition at 100 µg/mL was found to be 78%. Moreover, the IC50 in assay [1] was 48 µM.

`NC(=O)c1ncn([C@@H]2O[C@H](CO)[C@@H](O)[C@H]2O)n1` [Ribavirin]: the “reduction of viral load” value in assay [2] was 83%.

For the compound `COc1cc(/C=C/C(=O)CC(=O)/C=C/c2ccc(O)c(OC)c2)ccc1O` [Curcumin], in assay [1] (setting [3]), the inhibition at 6.25 µg/mL is 9.64% and the inhibition at 100 µg/mL amounted to 72.6%. Further, the inhibition at 25 µg/mL in assay [1] (at 25 μg/ml, read-out: Percentage inhibition of Furin) stood at 64.2%. For the same compound, the IC50 in assay [1] is 62.6 µM.

Take `CCCCCCCCCC(=O)N[C@@H](CCCNC(=N)N)C(=O)N[C@H](C(=O)N[C@@H](CCCCN)C(=O)N[C@@H](CCCNC(=N)N)C(=O)CCl)C(C)C` [Decanoyl RVKR chloromethyl ketone] (Decanoyl-RVKR-CH2Cl): the pIC50 in assay [1] (read-out: IC50, inhibition of Furin (positive control)) is 7.87.

As usually defined, the inhibition is how much of the control response was suppressed. By IC50 is commonly meant the concentration needed to halve the response being measured. Broadly, the pIC50 is the negative decadic logarithm of the IC50, by convention in mol/L.
